Legend:
blackgrass = test: Test C preemergence; type: in vivo, Alopecurus myosuroides; conditions: for Blackgrass plant response rating: preemergence; for Plant response rating, Blackgrass: Preemergence, scale 0 to 100, 0 no effect, 100 complete control
Outline: (§1)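 Whole-plant greenhouse test with surfactant-containing solvent formulation, applied preemergence to sown loam–sand pots or postemergence to 2–18 cm plants. Scored by eye 13 to 15 days on, 0–100 scale.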

wheat, winter = test: Test C preemergence; type: in vivo, Triticum aestivum; conditions: for Wheat plant response rating: preemergence; for Plant response rating, Wheat: Preemergence, scale 0 to 100, 0 no effect, 100 complete control
Outline: as §1

morningglory [1] = test: Test C preemergence; type: in vivo, Ipomoea coccinea; conditions: for Morningglory plant response rating: preemergence; for Plant response rating, Morningglory: Preemergence, scale 0 to 100, 0 no effect, 100 complete control
Outline: as §1

galium = test: Test C preemergence; type: in vivo, Galium aparine; conditions: for Galium plant response rating: preemergence; for Plant response rating, Galium: Preemergence, scale 0 to 100, 0 no effect, 100 complete control
Outline: as §1

wheat = test: Test A postemergence; type: in vivo, Triticum aestivum; conditions: 0 to 100 scale where 0 is no effect and 100 is complete control
Outline: (§2)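 Injury scores run from 0, no effect, to 100, complete control, judged by eye against untreated plants roughly 10 days after treatment. Chemicals carried a surfactant in a non-phytotoxic solvent and went onto loam–sand soil preemergence or onto one- to two-leaf seedlings postemergence.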

barnyardgrass = test: Test A postemergence; type: in vivo, Echinochloa crus-galli
Outline: as §2

Heteranthera limosa = test: Test B flooded paddy test; type: in vivo; conditions: Flood, 250 g ai/ha; 0 to 100 scale where 0 is no effect and 100 is complete control
Outline: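 Flooded to 3 cm at the 2-leaf stage, pots received compound through the paddy water and were kept at that depth under greenhouse conditions. After 13–15 days, effect was rated by eye relative to controls, 0 = none and 100 = complete control.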

waterhemp = test: Test C preemergence; type: in vivo, Amaranthus rudis; conditions: for Waterhemp plant response rating: preemergence; for Plant response rating, Waterhemp: Preemergence, scale 0 to 100, 0 no effect, 100 complete control
Outline: as §1

morningglory [2] = test: Test C postemergence; type: in vivo, Ipomoea coccinea; conditions: for Plant response rating (0 to 100), Morningglory: 125 g ai/ha, postemergence; for Plant response rating, Morningglory: Postemergence, scale 0 to 100 (0 no effect, 100 complete control)
Outline: as §1

Italian ryegrass = test: Test C preemergence; type: in vivo, Lolium multiflorum; conditions: for Ryegrass, Italian plant response rating: preemergence; for Plant response rating, Ryegrass, Italian: Preemergence, scale 0 to 100, 0 no effect, 100 complete control
Outline: as §1

large (Lg) crabgrass = test: Test A preemergence; type: in vivo, Digitaria sanguinalis; conditions: for Crabgrass, Large plant response rating: 500 g ai/ha
Outline: as §2

[3] = 16 g ai/ha, scale 0 to 100 (0 no effect, 100 complete control)
[4] = 62 g ai/ha, scale 0 (no effect) to 100 (complete control)
[5] = 125 g ai/ha, scale 0 (no effect) to 100 (complete control)
[6] = 125 g ai/ha, 0 to 100 scale where 0 is no effect and 100 is complete control
[7] = 500 g ai/ha, 0 to 100 scale, 0 no effect, 100 complete control
[8] = 500 g ai/ha, 0 to 100 scale where 0 is no effect and 100 is complete control
[9] = 0 to 100 scale where 0 is no effect and 100 is complete control

| Structure (SMILES) | Blackgrass plant response rating (blackgrass; [3]) | Blackgrass plant response rating (blackgrass; [4]) | Blackgrass plant response rating (blackgrass; [5]) | Plant response rating, Blackgrass (blackgrass; 31 g ai/ha) | Wheat plant response rating (wheat, winter; [3]) | Wheat plant response rating (wheat, winter; [4]) | Wheat plant response rating (wheat, winter; [5]) | Morningglory plant response rating (morningglory [1]; [3]) | Morningglory plant response rating (morningglory [1]; [4]) | Morningglory plant response rating (morningglory [1]; [5]) | Galium plant response rating (galium; [3]) | Galium plant response rating (galium; [4]) | Galium plant response rating (galium; [5]) | Plant response rating, Galium (galium; 31 g ai/ha) | Plant response rating, Wheat (wheat; 500 g ai/ha) | Plant response rating, Ducksalad (Heteranthera limosa) | Waterhemp plant response rating (waterhemp; [3]) | Waterhemp plant response rating (waterhemp; [5]) | Ryegrass, Italian plant response rating (Italian ryegrass; [3]) | Ryegrass, Italian plant response rating (Italian ryegrass; [5]) | other results |
| --- | --- | --- | --- | --- | --- | --- | --- | --- | --- | --- | --- | --- | --- | --- | --- | --- | --- | --- | --- | --- | --- |
| FCc1cccc(Oc2ncc(Cl)cn2)c1-n1cc(Br)cn1 [Compound 83] | 0 | 90 | 85 | 5 | 0 | 0 | 0 | 0 | 0 | 10 | 0 | 85 | 100 | 0 | 60 | 45 | 75 | 100 | 0 | 50 | Plant response rating, Wheat (wheat, winter; 31 g ai/ha): 0; Plant response rating, Morningglory (morningglory [1]; 31 g ai/ha): 0; Plant response rating, Wheat (wheat; 125 g ai/ha): 0; Plant response rating, Barnyardgrass (barnyardgrass; [6]): 90; Plant response rating, Barnyardgrass (barnyardgrass; [7]): 100; Waterhemp plant response rating (waterhemp; [4]): 100; Plant response rating, Waterhemp (waterhemp; 31 g ai/ha): 100; Plant response rating (0 to 100), Morningglory (morningglory [2]): 85; Plant response rating, Morningglory (morningglory [2]; 31 g ai/ha, 13 to 15 days): 65; Plant response rating, Morningglory (morningglory [2]; 62 g ai/ha): 75; Ryegrass, Italian plant response rating (Italian ryegrass; [4]): 30; Plant response rating, Ryegrass, Italian (Italian ryegrass; 31 g ai/ha): 0 |
| CCOc1cn(-c2c(Br)cccc2Oc2ncc(Cl)cn2)nn1 [Compound 84] | 0 | 40 | 85 | 5 | 0 | 0 | 0 | 0 | 25 | 100 | 80 | 100 | 100 | 90 | 80 | 50 | 100 | 100 | 0 | 5 | Plant response rating, Wheat (wheat, winter; 31 g ai/ha): 0; Plant response rating, Morningglory (morningglory [1]; 31 g ai/ha): 10; Plant response rating, Wheat (wheat; 125 g ai/ha): 30; Plant response rating, Barnyardgrass (barnyardgrass; [6]): 70; Plant response rating, Barnyardgrass (barnyardgrass; [7]): 100; Waterhemp plant response rating (waterhemp; [4]): 100; Plant response rating, Waterhemp (waterhemp; 31 g ai/ha): 75; Plant response rating (0 to 100), Morningglory (morningglory [2]): 85; Plant response rating, Morningglory (morningglory [2]; 31 g ai/ha, 13 to 15 days): 70; Plant response rating, Morningglory (morningglory [2]; 62 g ai/ha): 85; Ryegrass, Italian plant response rating (Italian ryegrass; [4]): 5; Plant response rating, Ryegrass, Italian (Italian ryegrass; 31 g ai/ha): 5 |
| N#Cc1cccc(Oc2ncc(F)cn2)c1-n1cc(I)cn1 [Compound 86] | 0 | 90 | 98 | 20 | 0 | 0 | 35 | 10 | 60 | 100 | 90 | 98 | 90 | 80 | 90 | 75 | 100 | 100 | 0 | 35 | Plant response rating, Wheat (wheat, winter; 31 g ai/ha): 0; Plant response rating, Morningglory (morningglory [1]; 31 g ai/ha): 25; Plant response rating, Wheat (wheat; 125 g ai/ha): 50; Plant response rating, Barnyardgrass (barnyardgrass; [6]): 90; Plant response rating, Barnyardgrass (barnyardgrass; [8]): 100; Waterhemp plant response rating (waterhemp; [4]): 100; Plant response rating, Waterhemp (waterhemp; 31 g ai/ha): 100; Plant response rating (0 to 100), Morningglory (morningglory [2]): 85; Plant response rating, Morningglory (morningglory [2]; 31 g ai/ha, 13 to 15 days): 80; Plant response rating, Morningglory (morningglory [2]; 62 g ai/ha): 85; Ryegrass, Italian plant response rating (Italian ryegrass; [4]): 30; Plant response rating, Ryegrass, Italian (Italian ryegrass; 31 g ai/ha): 0 |
| Fc1cccc(Oc2ncc(Cl)cn2)c1-n1cc(I)cn1 [Compound 179] | 0 | 40 | 90 | 50 | 0 | 0 | 5 | 10 | 35 | 90 | 90 | 98 | 100 | 95 | 60 | 80 | 90 | 100 | 0 | 70 | Wheat plant response rating (wheat; 125 g ai/ha): 30; Barnyardgrass plant response rating (barnyardgrass; [6]): 80; Plant response rating, Barnyardgrass (barnyardgrass; [8]): 100; Waterhemp plant response rating (waterhemp; [4]): 98; Ryegrass, Italian plant response rating (Italian ryegrass; [4]): 30; Plant response rating, Crabgrass, Large (large (Lg) crabgrass; [6]): 100; Crabgrass, Large plant response rating (large (Lg) crabgrass; [9]): 100 |
| CCOc1cnn(-c2ccccc2Oc2ncc(Cl)cn2)c1 [Compound 187] | 0 |  | 100 |  | 0 |  | 0 | 0 |  | 5 | 30 |  | 98 |  | 60 | 65 | 25 | 95 | 0 | 5 | Plant response rating, Blackgrass (blackgrass; 62 g ai/ha): 30; Plant response rating, Wheat (wheat, winter; 62 g ai/ha): 0; Plant response rating, Morningglory (morningglory [1]; 62 g ai/ha): 0; Plant response rating, Galium (galium; 62 g ai/ha): 90; Wheat plant response rating (wheat; 125 g ai/ha): 20; Barnyardgrass plant response rating (barnyardgrass; [6]): 80; Plant response rating, Barnyardgrass (barnyardgrass; [8]): 90; Plant response rating, Waterhemp (waterhemp; 62 g ai/ha): 85; Plant response rating, Ryegrass, Italian (Italian ryegrass; 62 g ai/ha): 0; Crabgrass, Large plant response rating (0 to 100 scale) (large (Lg) crabgrass; 125 g ai/ha): 100; Crabgrass, Large plant response rating (large (Lg) crabgrass; [9]): 100 |
